Assay results taken from patent US20250328351A1, “CARBONIC ANHYDRASE INHIBITORS AND ANTIBIOTICS AGAINST MULTIDRUG RESISTANT BACTERIA” (Purdue Research Foundation, priority 2018, published 2025).
≈ marks a conversion by molar mass, not a printed value. Like-named read-outs stand apart in the source and are kept apart here.

What was measured:
[1] = tested on: Enterococcus faecalis S613 HM-334; test: MIC, broth microdilution (CLSI); assay type: cell-based
Protocol: (§1) The minimum inhibitory concentrations (MICs) of the compounds and control drugs were determined using the broth microdilution method, according to guidelines outlined by the Clinical and Laboratory Standards Institute (CLSI). Enterococci strains were grown aerobically overnight on tryptone soya agar plates at 37° C., afterwards a bacterial solution equivalent to 0.5 McFarland standard was prepared and diluted in tryptone soy broth (TSB) to achieve a bacterial concentration of about 5×10^5 CFU/mL and seeded in 96-well well plates. Compounds and control drugs were added in the first row of the 96-well plates and serially diluted along the plates. Plates were then incubated aerobically at 37° C. for 18-20 hours. MICs reported in Table 1 are the minimum concentration of the compounds/control drugs that could inhibit completely the visual growth of the bacteria.
(§2) The minimum inhibitory concentrations (MICs) of CAIs were tested against clinical isolates of vancomycin sensitive and vancomycin resistant Enterococci strains as per the guidelines provided by the Clinical and Laboratory Standards Institute (CLSI). The selected strains of Enterococci were streaked on Tryptic Soy Agar (TSA) plates and let grow for 24 hours at 37° C. Afterwards, a bacterial solution equivalent to 0.5 McFarland standard was prepared and diluted in tryptone soy broth (TSB) or brain heart infusion broth (BHIB) to achieve a bacterial concentration of about 5×10^5 CFU/mL and seeded in 96-well well plates. Compounds and control drugs were added in the first row of the 96-well plates and serially diluted along the plates. Plates were then incubated aerobically at 37° C. for 18-20 hours. MICs reported in Table 5 are the minimum concentration of the compounds/control drugs that could inhibit completely the visual growth of the bacteria.
The minimum inhibitory concentrations (MICs) of CAIs were tested against vancomycin resistant Enterococcus faecalis—S613 HM 334 strain as per the guidelines provided by the Clinical and Laboratory Standards Institute (CLSI). The selected strain was streaked on Tryptic Soy Agar (TSA) plate and let grow for 24 hours at 37° C. […] Compounds and control drugs were added in the first row of the 96-well plates and serially diluted along the plates. Plates were then incubated aerobically at 37° C. for 18-20 hours. MICs reported in table (6) are the minimum concentration of the compounds/control drugs that could inhibit completely the visual growth of the bacteria.

[2] = tested on: Bacteroides fragilis CL07T00C01 HM-709; test: MIC against human normal gut microbiota; assay type: cell-based; conditions: Table 3, BHIS broth, anaerobic, 48 hours, read-out: MIC
Protocol: (§3) Three different bacterial strains were used in this experiment; Bifidobacterium (anaerobic Gram positive bacteria), Bacteroides (anaerobic Gram negative bacteria) and Lactobacillus (microaerophilic Gram positive bacteria). Bifidobacterium and Bacteroides were first grown for 48 hours at 37° C., anaerobically using brain heart infusion supplemented (BHIS) agar (Brain heart infusion agar supplemented with hemin, vitamin K and L-cysteine). Lactobacillus was cultivated on MRS agar and incubated in presence of 5% CO2 for 48 hours at 37° C. Each bacterium was suspended in phosphate buffered saline (PBS) to produce a suspension with optical density that matches 0.5 McFarland standard and diluted in brain heart infusion supplemented broth (for Bifidobacterium and Bacteroides) or in MRS broth (for Lactobacillus) to achieve bacterial concentration of approximately 5×10^5 CFU/ml. Bacteria were then seeded in 96-well plates containing serial dilutions of the compounds and incubated as mentioned previously for 48 hours.

[3] = tested on: Bifidobacterium breve JCP7499 HM 1120; test: MIC against human normal gut microbiota; assay type: cell-based; conditions: JCP7499HM1120, Table 3, BHIS broth, anaerobic, 48 hours, read-out: MIC
Protocol: as §3

[4] = tested on: Bacteroides dorei CL02T12C06 HM-719; test: MIC against human normal gut microbiota; assay type: cell-based; conditions: Phocaeicola dorei; Table 3; BHIS broth, anaerobic, 48 hours; read-out: MIC
Protocol: as §3

[5] = tested on: VERO cells; test: In vitro cytotoxicity, MTS assay; assay type: cell-based, monkey; conditions: concentration up to 128 μg/mL; two hours incubation
Protocol: Toxicity assessment: Compounds AS005H, AS005J, AS004B, AS005K, AS005A and 005D were assayed (at concentrations of 64 and 128 μg/mL) against a fibroblast-like monkey kidney cell line (VERO cell) to determine the potential toxic effect in vitro. Briefly, cells were cultured in Minimum Essential Medium (MEM) supplemented with 10% fetal bovine serum (FBS), 1 mM sodium pyruvate, and penicillin-streptomycin at 37° C. with CO2 (5%). Control cells received DMSO alone at a concentration equal to that in drug-treated cell samples. The cells were incubated with the compounds (in triplicate) in a 96-well plate at 37° C. with CO2 (5%) for two hours. The assay reagent MTS 3-(4,5-dimethylthiazol-2-yl)-5-(3-carboxymethoxyphenyl)-2-(4-sulfophenyl)-2H-tetrazolium) (Promega, Madison, WI, USA) was subsequently added and the plate was incubated for four hours. Absorbance readings (at OD490) were taken using a kinetic microplate reader (Molecular Devices, Sunnyvale, CA, USA). The quantity of viable cells after treatment with each compound was expressed as a percentage of the viability of DMSO-treated control cells (average of triplicate wells±standard deviation). The toxicity data was analyzed via a two-way ANOVA, with post hoc Dunnet's multiple comparisons test (P<0.05), utilizing GraphPad Prism 6.0 (GraphPad Software, La Jolla, CA).
(§4) Percent viable mammalian cells (measured as average absorbance ratio (test agent relative to DMSO) for cytotoxicity analysis of compounds AS005H, AS005J, AS004B, AS005K, AS005A and 005D (tested in triplicates) at 64 and 128 μg/mL against VERO cells using the MTS 3-(4,5-dimethylthiazol-2-yl)-5-(3-carboxymethoxyphenyl)-2-(4-sulfophenyl)-2H-tetrazolium) assay. Dimethyl sulfoxide (DMSO) was used as a negative control to determine a baseline measurement for the cytotoxic impact of each compound. The absorbance values represent an average of a minimum of three samples analyzed for each compound. Error bars represent standard deviation values for the absorbance values.

[6] = tested on: Caco-2 cells; test: In vitro cytotoxicity, MTS assay; conditions: concentration up to 128 μg/mL; two hours incubation
Protocol: Method: Compounds AS005H, AS005J, AS004B, AS005K, AS005A and 005D were assayed (at concentrations of 64 and 128 μg/mL) against a human colorectal adenocarcinoma (Caco-2) cell to determine the potential toxic effect to mammalian cells in vitro. Briefly, cells were cultured in Dulbecco's Modified Eagle Medium (DMEM) supplemented with 20% fetal bovine serum (FBS), non-essential amino acids (1×), penicillin-streptomycin at 37° C. with CO2 (5%). Control cells received DMSO alone at a concentration equal to that in drug-treated cell samples. The cells were incubated with the compounds (in triplicate) in a 96-well plate at 37° C. with CO2 (5%) for two hours. The assay reagent MTS 3-(4,5-dimethylthiazol-2-yl)-5-(3-carboxymethoxyphenyl)-2-(4-sulfophenyl)-2H-tetrazolium) (Promega, Madison, WI, USA) was subsequently added and the plate was incubated for four hours. Absorbance readings (at OD490) were taken using a kinetic microplate reader (Molecular Devices, Sunnyvale, CA, USA). The quantity of viable cells after treatment with each compound was expressed as a percentage of the viability of DMSO-treated control cells (average of triplicate wells±standard deviation). The toxicity data was analyzed via a two-way ANOVA, with post hoc Dunnet's multiple comparisons test (P<0.05), utilizing GraphPad Prism 6.0 (GraphPad Software, La Jolla, CA).
as §4, with “of” for “of compounds”, “005D compounds” for “005D”, “triplicate)” for “triplicates)”, “Caco-2” for “VERO”, “values. A two-way ANOVA, with post hoc Dunnet's multiple comparisons test, determined statistical difference (denoted by the asterisk) (P<0.05) between the values obtained for each compound and DMSO (negative control, used as solvent for the compounds).” for “values.”

[7] = tested on: Enterococcus fecalis Strain SF 28073 - NR31972; test: MIC, broth microdilution (CLSI); assay type: cell-based; conditions: Enterococcus, Table 7; TSB; read-out: MIC
Protocol: as §1

[8] = tested on: Enterococcus faecium Patient #3-1 NR-31912; test: MIC, broth microdilution (CLSI); assay type: cell-based; conditions: Enterococcus faecium, Table 7; TSB; read-out: MIC
Protocol: as §1

[9] = tested on: Enterococcus fecalis Strain SF24413 NR31971; test: MIC, broth microdilution (CLSI); assay type: cell-based; conditions: Enterococcus, Table 7; TSB; read-out: MIC
Protocol: as §1

[10] = tested on: Enterococcus fecalis Strain SF 24397 NR31970; test: MIC, broth microdilution (CLSI); assay type: cell-based
Protocol: as §1, §2

[11] = tested on: Enterococcus faecium E417 - HM-965; test: MIC, broth microdilution (CLSI); assay type: cell-based
Protocol: as §1, §2

[12] = tested on: Enterococcus faecium Patient #2-1 - NR-31909; test: MIC, broth microdilution (CLSI); assay type: cell-based
Protocol: as §1, §2

[13] = Enterococcus faecalis, S613HM334, Table 1, TSB, read-out: MIC
[14] = Enterococcus faecalis, S613HM334, Table 6, TSB in presence of 4% human serum albumin, read-out: MIC
[15] = Enterococcus faecalis, S613HM334, Table 7, TSB, read-out: MIC

MIC [1, 13]	MIC [1, 15]	SMILES	MIC [2]	MIC [3]	MIC [4]	toxicity to VERO cells (percent viable cells, MTS) [5]	toxicity to Caco-2 cells (percent viable cells, MTS) [6]	further results
0.5 µg/mL (≈ 1.89 µM)	0.125 µg/mL (≈ 0.473 µM)	CC(C)(C)C(=O)Nc1nnc(S(N)(=O)=O)s1 [CAI0010, N-(5-Sulfamoyl-1,3,4-thiadiazol-2-yl)pivalamide]	> 64 µg/mL	> 64 µg/mL	> 64 µg/mL	non-toxic	non-toxic	MIC [1, 14]: > 256 µg/mL
2 µg/mL (≈ 7.99 µM)	2 µg/mL (≈ 7.99 µM)	CC(C)C(=O)Nc1nnc(S(N)(=O)=O)s1 [CAI0011, N-(5-Sulfamoyl-1,3,4-thiadiazol-2-yl)isobutyramide]	> 64 µg/mL	> 64 µg/mL	> 64 µg/mL	non-toxic	non-toxic	
		CCCC(=O)Nc1nnc(S(N)(=O)=O)s1 [CAI0013, N-(5-Sulfamoyl-1,3,4-thiadiazol-2-yl)butyramide]	> 64 µg/mL	> 64 µg/mL	> 64 µg/mL	non-toxic		
1 µg/mL (≈ 3.2 µM)	1 µg/mL (≈ 3.2 µM)	CCc1ccc(C(=O)Nc2nnc(S(N)(=O)=O)s2)cc1 [CAI0017, 4-Ethyl-N-(5-sulfamoyl-1,3,4-thiadiazol-2-yl)benzamide]	> 64 µg/mL	> 64 µg/mL	> 64 µg/mL	non-toxic	non-toxic	
		CCCCCCCCCC(=O)N[C@@H](Cc1c[nH]c2ccccc12)C(=O)N[C@H](CC(N)=O)C(=O)N[C@@H](CC(=O)O)C(=O)N[C@@H]1C(=O)NCC(=O)N[C@@H](CCCN)C(=O)N[C@@H](CC(=O)O)C(=O)N[C@H](C)C(=O)N[C@@H](CC(=O)O)C(=O)NCC(=O)N[C@H](CO)C(=O)N[C@@H]([C@H](C)CC(=O)O)C(=O)N[C@@H](CC(=O)c2ccccc2N)C(=O)O[C@@H]1C [Daptomycin]						MIC ([1]; Enterococcus faecalis, S613HM334, Table 5, BHIB, read-out: MIC): 2 µg/mL (≈ 1.23 µM); MIC ([1]; Enterococcus faecalis, S613HM334, Table 5, TSB, read-out: MIC): 1 µg/mL (≈ 0.617 µM); MIC [1, 14]: 16 µg/mL; MIC ([10]; Enterococcus, Table 5, BHIB, read-out: MIC): 2 µg/mL (≈ 1.23 µM); MIC ([10]; Enterococcus, Table 5, TSB, read-out: MIC): 1 µg/mL (≈ 0.617 µM); MIC ([11]; Enterococcus faecium, E417HM965, Table 5, BHIB, read-out: MIC): 16 µg/mL (≈ 9.87 µM); MIC ([11]; Enterococcus faecium, E417HM965, Table 5, TSB, read-out: MIC): 4 µg/mL (≈ 2.47 µM); MIC ([12]; Enterococcus faecium, Table 5, BHIB, read-out: MIC): 16 µg/mL (≈ 9.87 µM); MIC ([12]; Enterococcus faecium, Table 5, TSB, read-out: MIC): 8 µg/mL (≈ 4.94 µM)
		NS(=O)(=O)c1cc(Cl)c(Cl)c(S(N)(=O)=O)c1 [Dichlophenamide, reference compound]						MIC ([1]; Table 5, TSB): 16 µg/mL (≈ 52.4 µM); MIC ([10]; Table 5, TSB): 16 µg/mL (≈ 52.4 µM); MIC ([11]; Table 5, BHIB): 16 µg/mL (≈ 52.4 µM); MIC ([11]; Table 5, TSB): 1 µg/mL (≈ 3.28 µM); MIC ([12]; Table 5, TSB): 2 µg/mL (≈ 6.55 µM)

SMILES	MIC [1, 13]	MIC [1, 15]	MIC [2]	MIC [3]	MIC [4]	toxicity to VERO cells (percent viable cells, MTS) [5]	toxicity to Caco-2 cells (percent viable cells, MTS) [6]	further results
NS(=O)(=O)c1nnc(NC(=O)C=CC2CCCCC2)s1 [CAI0019, 3-cyclohexyl-N-(5-sulfamoyl-1,3,4-thiadiazol-2-yl)propenamide]		0.007 µg/mL (≈ 0.0221 µM)						MIC [7]: 0.015 µg/mL (≈ 0.0474 µM); MIC [8]: 7 ng/mL (≈ 0.0221 µM); MIC [9]: 0.015 µg/mL (≈ 0.0474 µM); MIC ([10]; Enterococcus, Table 7, TSB, read-out: MIC): 0.015 µg/mL (≈ 0.0474 µM); MIC ([11]; Enterococcus faecium, E417HM965, Table 7, TSB, read-out: MIC): 0.007 µg/mL (≈ 0.0221 µM); MIC ([12]; Enterococcus faecium, Table 7, TSB, read-out: MIC): 0.003 µg/mL (≈ 0.00948 µM)
